Source: patent US7491819B1 (priority 2004, dated 2009)

What follows are compounds tested against T1, HIV-integrase (Human immunodeficiency virus type 1 group M subtype B, UniProt P12497) (assay: HIV-Integrase Inhibition Activity (SPA bead strand-transfer assay)). Details: Table 1; read-out: Activity (HIV-integrase inhibition, IC50 class).
T1 construct: Recombinant integrase (0.26 ng) was incubated with the beads
Format: biochemical
Description: HIV-Integrase Inhibition Activity. To evaluate in-vitro activity against HIV-integrase, 5 pmole of biotin labeled substrate DNA was bound to 100 μg of Streptavidin coated PVT SPA beads (Amersham Pharmacia Biotech). Recombinant integrase (0.26 ng) was incubated with the beads for 90 min at 37° C. Unbound enzyme was removed by washing the complex followed by addition of inhibitors and 0.1 fmol of P33 labeled target DNA. The reaction was stopped by adding EDTA to a final concentration of 10 mM. Samples were counted in TopCountNXT (Packard) and the CPM was used as a measure of integration. The reaction condition was as described in A. Engelman and R. Craigie, J. Virol 69, 5908-5911 (1995). The sequences of substrate and target DNA were described in Nucleic Acid Research 22, 1121-1122 (1994).

| SMILES | IC50 [nM] |
| --- | --- |
| Cc1ccc(CNC(=O)c2nc3n(c(=O)c2O)CCOC3(C)C)cc1C [Example 31, Pyrimido[2,1-c][1,4]oxazine-2-carboxamide, N-[(3,4-dimethylphenyl)methyl]-4,6,7,9-tetrahydro-3-hydroxy-9,9-dimethyl-4-oxo-] | 2 to 100 |
| CC1(C)OCCn2c1nc(C(=O)NCc1ccc(F)c(Cl)c1)c(O)c2=O [Example 32, Pyrimido[2,1-c][1,4]oxazine-2-carboxamide, N-[(3-chloro-4-fluorophenyl)methyl]-4,6,7,9-tetrahydro-3-hydroxy-9,9-dimethyl-4-oxo-] | 2 to 100 |
| CC1(C)OCCn2c1nc(C(=O)NCc1ccc(F)c(F)c1)c(O)c2=O [Example 33, Pyrimido[2,1-c][1,4]oxazine-2-carboxamide, N-[(3,4-difluorophenyl)methyl]-4,6,7,9-tetrahydro-3-hydroxy-9,9-dimethyl-4-oxo-] | 2 to 100 |
| CC1(C)OCCn2c1nc(C(=O)NCc1ccc(Cl)cc1)c(O)c2=O [Example 34, Pyrimido[2,1-c][1,4]oxazine-2-carboxamide, N-[(4-chlorophenyl)methyl]-4,6,7,9-tetrahydro-3-hydroxy-9,9-dimethyl-4-oxo-] | 2 to 100 |
| CC1(C)OCCn2c1nc(C(=O)NCc1ccc(F)cc1F)c(O)c2=O [Example 35, Pyrimido[2,1-c][1,4]oxazine-2-carboxamide, N-[(2,4-difluorophenyl)methyl]-4,6,7,9-tetrahydro-3-hydroxy-9,9-dimethyl-4-oxo-] | 2 to 100 |
| CC1(C)OCCn2c1nc(C(=O)NCc1ccc(F)cc1Cl)c(O)c2=O [Example 36, Pyrimido[2,1-c][1,4]oxazine-2-carboxamide, N-[(2-chloro-4-fluorophenyl)methyl]-4,6,7,9-tetrahydro-3-hydroxy-9,9-dimethyl-4-oxo-] | 2 to 100 |
| Cc1ccc(CNC(=O)c2nc3n(c(=O)c2O)CCOC3(C)C)c(C)c1 [Example 37, Pyrimido[2,1-c][1,4]oxazine-2-carboxamide, N-[(2,4-dimethylphenyl)methyl]-4,6,7,9-tetrahydro-3-hydroxy-9,9-dimethyl-4-oxo-] | 2 to 100 |
| Cc1cc(C)cc(CNC(=O)c2nc3n(c(=O)c2O)CCOC3(C)C)c1 [Example 38, Pyrimido[2,1-c][1,4]oxazine-2-carboxamide, N-[(3,5-dimethylphenyl)methyl]-4,6,7,9-tetrahydro-3-hydroxy-9,9-dimethyl-4-oxo-] | 2 to 100 |
| Cc1cc(F)ccc1CNC(=O)c1nc2n(c(=O)c1O)CCOC2(C)C [Example 39, Pyrimido[2,1-c][1,4]oxazine-2-carboxamide, N-[(4-fluoro-2-methylphenyl)methyl]-4,6,7,9-tetrahydro-3-hydroxy-9,9-dimethyl-4-oxo-] | 2 to 100 |
| CC1(C)OCCn2c1nc(C(=O)NCc1ccc(F)c3ccccc13)c(O)c2=O [Example 40, Pyrimido[2,1-c][1,4]oxazine-2-carboxamide, N-[(4-fluoro-1-naphthalenyl)methyl]-4,6,7,9-tetrahydro-3-hydroxy-9,9-dimethyl-4-oxo-] | 2 to 100 |
| COc1cc(F)ccc1CNC(=O)c1nc2n(c(=O)c1O)CCOC2(C)C [Example 41, Pyrimido[2,1-c][1,4]oxazine-2-carboxamide, N-[(4-fluoro-2-methoxyphenyl)methyl]-4,6,7,9-tetrahydro-3-hydroxy-9,9-dimethyl-4-oxo-] | 2 to 100 |
| CCC1(CC)OCCn2c1nc(C(=O)NCc1ccc(F)cc1)c(O)c2=O [Example 42, Pyrimido[2,1-c][1,4]oxazine-2-carboxamide, 9,9-diethyl-N-[(4-fluorophenyl)methyl]-4,6,7,9-tetrahydro-3-hydroxy-4-oxo-] | 2 to 100 |
| CCC1(CC)OCCn2c1nc(C(=O)NCc1ccc(F)c(C)c1)c(O)c2=O [Example 43] | 2 to 100 |
| CC1(C)OCCCn2c1nc(C(=O)NCc1ccc(F)cc1)c(O)c2=O [Example 44, 6H-Pyrimido[2,1-c][1,4]oxazepine-2-carboxamide, N-[(4-fluorophenyl)methyl]-4,7,8,10-tetrahydro-3-hydroxy-10,10-dimethyl-4-oxo-] | 2 to 100 |
| Cc1cc(CNC(=O)c2nc3n(c(=O)c2O)CCCOC3(C)C)ccc1F [Example 45, 6H-Pyrimido[2,1-c][1,4]oxazepine-2-carboxamide, N-[(4-fluoro-3-methylphenyl)methyl]-4,7,8,10-tetrahydro-3-hydroxy-10,10-dimethyl-4-oxo-] | 2 to 100 |
| CC1(C)OCCn2c1nc(C(=O)NCc1ccc(F)cc1OCC(=O)N1CCOCC1)c(O)c2=O [Example 46, Pyrimido[2,1-c][1,4]oxazine-2-carboxamide, N-[[4-fluoro-2-[2-(4-morpholinyl)-2-oxoethoxy]phenyl]methyl]-4,6,7,9-tetrahydro-3-hydroxy-9,9-dimethyl-4-oxo-] | 2 to 100 |
| COC(=O)c1cc(F)ccc1CNC(=O)c1nc2n(c(=O)c1O)CCOC2(C)C [Example 47, Benzoic acid, 5-fluoro-2-[[[(4,6,7,9-tetrahydro-3-hydroxy-9,9-dimethyl-4-oxopyrimido[2,1-c][1,4]oxazin-2-yl)carbonyl]amino]methyl]-, methyl ester] | 2 to 100 |
| CC1(C)OCCn2c1nc(C(=O)NCc1ccc(F)cc1C(=O)O)c(O)c2=O [Example 48, Benzoic acid, 5-fluoro-2-[[[(4,6,7,9-tetrahydro-3-hydroxy-9,9-dimethyl-4-oxopyrimido[2,1-c][1,4]oxazin-2-yl)carbonyl]amino]methyl]-] | 2 to 100 |
| CNC(=O)c1cc(F)ccc1CNC(=O)c1nc2n(c(=O)c1O)CCOC2(C)C [Example 49, Pyrimido[2,1-c][1,4]oxazine-2-carboxamide, N-[[4-fluoro-2-[(methylamino)carbonyl]phenyl]methyl]-4,6,7,9-tetrahydro-3-hydroxy-9,9-dimethyl-4-oxo-] | 2 to 100 |
| CC1(C)OCCn2c1nc(C(=O)NCc1ccc(F)cc1C(=O)NC1CC1)c(O)c2=O [Example 50, Pyrimido[2,1-c][1,4]oxazine-2-carboxamide, N-[[2-[(cyclopropylamino)carbonyl]-4-fluorophenyl]methyl]-4,6,7,9-tetrahydro-3-hydroxy-9,9-dimethyl-4-oxo-] | 2 to 100 |
| CC1(C)OCCn2c1nc(C(=O)NCc1ccc(F)cc1C(=O)NCCO)c(O)c2=O [Example 51, Pyrimido[2,1-c][1,4]oxazine-2-carboxamide, N-[[4-fluoro-2-[[(2-hydroxyethyl)amino]carbonyl]phenyl]methyl]-4,6,7,9-tetrahydro-3-hydroxy-9,9-dimethyl-4-oxo-] | 2 to 100 |
| CC1(C)OCCn2c1nc(C(=O)NCc1ccc(F)cc1C(=O)N1CCOCC1)c(O)c2=O [Example 52, Pyrimido[2,1-c][1,4]oxazine-2-carboxamide, N-[[4-fluoro-2-(4-morpholinylcarbonyl)phenyl]methyl]-4,6,7,9-tetrahydro-3-hydroxy-9,9-dimethyl-4-oxo-] | 2 to 100 |
| CC1(C)OCCn2c1nc(C(=O)NCc1ccc(F)cc1-n1ccnc1)c(O)c2=O [Example 53, Pyrimido[2,1-c][1,4]oxazine-2-carboxamide, N-[[4-fluoro-2-(1H-imidazol-1-yl)phenyl]methyl]-4,6,7,9-tetrahydro-3-hydroxy-9,9-dimethyl-4-oxo-] | 2 to 100 |
| CC1(C)OCCn2c1nc(C(=O)NCc1cc(F)ccc1-n1cncn1)c(O)c2=O [Example 54, Pyrimido[2,1-c][1,4]oxazine-2-carboxamide, N-[[5-fluoro-2-(1H-1,2,4-triazol-1-yl)phenyl]methyl]-4,6,7,9-tetrahydro-3-hydroxy-9,9-dimethyl-4-oxo-e] | 2 to 100 |
| CC1(C)OCCn2c1nc(C(=O)NCc1cccc(F)c1N1CCCCS1(=O)=O)c(O)c2=O [Example 55, Pyrimido[2,1-c][1,4]oxazine-2-carboxamide, N-[[3-fluoro-2-(tetrahydro-1,1-dioxido-2H-1,2-thiazin-2-yl)phenyl]methyl]-4,6,7,9-tetrahydro-3-hydroxy-9,9-dimethyl-4-oxo-] | 2 to 100 |
| CC1(C)OCCn2c1nc(C(=O)NCc1cccc(F)c1-n1cncn1)c(O)c2=O [Example 56, Pyrimido[2,1-c][1,4]oxazine-2-carboxamide, N-[[3-fluoro-2-(1H-1,2,4-triazol-1-yl)phenyl]methyl]-4,6,7,9-tetrahydro-3-hydroxy-9,9-dimethyl-4-oxo-] | 2 to 100 |
| CC1(C)OCCn2c1nc(C(=O)NCc1ccc(F)cc1-n1nccn1)c(O)c2=O [Example 57, Pyrimido[2,1-c][1,4]oxazine-2-carboxamide, N-[[4-fluoro-2-(2H-1,2,3-triazol-2-yl)phenyl]methyl]-4,6,7,9-tetrahydro-3-hydroxy-9,9-dimethyl-4-oxo-] | 2 to 100 |
| CC1(C)OCCn2c1nc(C(=O)NCc1ccc(-n3nccn3)cc1F)c(O)c2=O [Example 58, Pyrimido[2,1-c][1,4]oxazine-2-carboxamide, N-[[2-fluoro-4-(2H-1,2,3-triazol-2-yl)phenyl]methyl]-4,6,7,9-tetrahydro-3-hydroxy-9,9-dimethyl-4-oxo-] | 2 to 100 |
| CC1(C)OCCn2c1nc(C(=O)NCc1ccc(F)cc1Br)c(O)c2=O [Example 59, Pyrimido[2,1-c][1,4]oxazine-2-carboxamide, N-[(2-bromo-4-fluorophenyl)methyl]-4,6,7,9-tetrahydro-3-hydroxy-9,9-dimethyl-4-oxo-] | 2 to 100 |
| COC(=O)c1ncn(-c2cc(F)ccc2CNC(=O)c2nc3n(c(=O)c2O)CCOC3(C)C)n1 [Example 60, 1H-1,2,4-Triazole-3-carboxylic acid, 1-[5-fluoro-2-[[[(4,6,7,9-tetrahydro-3-hydroxy-9,9-dimethyl-4-oxopyrimido[2,1-c][1,4]oxazin-2-yl)carbonyl]amino]methyl]phenyl], methyl este] | 2 to 100 |
